Data taken from ChEMBL document CHEMBL1150452, “Kinetic characterization of a peptide inhibitor of trypsin isolated from a synthetic peptide combinatorial library” (Bioorg Med Chem Lett, 1995).

Columns and labels:
[1] = target: T1, Serine protease 1 (Bos taurus) (UniProt P00760)
T1 sequence (whole entry): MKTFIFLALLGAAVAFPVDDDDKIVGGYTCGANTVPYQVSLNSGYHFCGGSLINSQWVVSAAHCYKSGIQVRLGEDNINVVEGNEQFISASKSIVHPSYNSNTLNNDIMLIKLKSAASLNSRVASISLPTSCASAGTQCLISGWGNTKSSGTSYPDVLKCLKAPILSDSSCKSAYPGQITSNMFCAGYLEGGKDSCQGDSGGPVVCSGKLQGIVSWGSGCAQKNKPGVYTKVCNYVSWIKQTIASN
Description: (§1) Trypsin inhibitory potency was evaluated from the catalytic constant Kcat.

[2] = target: T1, Serine protease 1 (Bos taurus); remark: listed apart in the source
Description: as §1

[3] = target: T2, Serine protease 1 (Bos taurus, UniProt P00760); experiment: Inhibitory activity against trypsin mediated Tyr-Gly-Aer-p- nitroaniline
T2 sequence (P00760 whole entry): T1 sequence (whole entry)

[4] = target: T2, Serine protease 1; experiment: Inhibitory activity against trypsin
[5] = substrate: CC[C@H](C)[C@H](NC(=O)[C@H](CCCCN)NC(=O)CNC(=O)[C@H](Cc1ccc(O)cc1)NC(=O)[C@@H](N)Cc1ccc(O)cc1)C(=O)N[C@@H](Cc1ccc(O)cc1)C(=O)N[C@@H](CCCN=C(N)N)C(=O)N1CCC[C@H]1C(=O)N[C@@H](CC(=O)O)C(=O)N[C@@H](CCCCN)C(=O)N[C@@H](CCSC)C(=O)O; conditions: Bos taurus
Description: Trypsin inhibitory potency was evaluated from the Michaelis-Menten constant KM.

H-YYGKIYRPDKM-OH
k cat [1]: 0.73 s⁻¹

H-YYGAKAYRPDKM-OH
k cat [2]: 87 s⁻¹

CC[C@H](C)[C@H](NC(=O)[C@H](CCCN=C(N)N)NC(=O)[C@H](C)NC(=O)CNC(=O)[C@H](Cc1ccc(O)cc1)NC(=O)[C@@H](N)Cc1ccc(O)cc1)C(=O)N[C@@H](Cc1ccc(O)cc1)C(=O)N[C@@H](CCCN=C(N)N)C(=O)N1CCC[C@@H]1C(=O)N[C@@H](CC(=O)O)C(=O)N[C@@H](CCCCN)C(=O)N[C@@H](CCSC)C(=O)O
k cat [2]: 30 s⁻¹

H-YYGAKIYRPDKM-OH
Ki [3]: 9.4 µM | IC50 [4]: 10 µM

CC[C@H](C)[C@H](NC(=O)[C@H](CCCCN)NC(=O)[C@H](C)NC(=O)CNC(=O)[C@H](Cc1ccc(O)cc1)NC(=O)[C@@H](N)Cc1ccc(O)cc1)C(=O)N[C@@H](C)C(=O)N[C@@H](CCCN=C(N)N)C(=O)N1CCC[C@@H]1C(=O)N[C@@H](CC(=O)O)C(=O)N[C@@H](CCCCN)C(=O)N[C@@H](CCSC)C(=O)O
k cat [2]: 1.3 s⁻¹

CC[C@H](C)[C@H](NC(=O)[C@H](CCCCN)NC(=O)[C@H](C)NC(=O)CNC(=O)[C@H](Cc1ccc(O)cc1)NC(=O)[C@@H](N)Cc1ccc(O)cc1)C(=O)N[C@@H](Cc1ccc(O)cc1)C(=O)N[C@@H](C)C(=O)N1CCC[C@@H]1C(=O)N[C@@H](CC(=O)O)C(=O)N[C@@H](CCCCN)C(=O)N[C@@H](CCSC)C(=O)O
k cat [2]: 0.6 s⁻¹

B1: Serine protease 1 (Bos taurus), P00760 (protein)
chain: T1 sequence (whole entry)
Km [5]: 24 mM
